Measurements published in article PMC8836147, “Design, Synthesis and Antifungal/Nematicidal Activity of Novel 1,2,4-Oxadiazole Derivatives Containing Amide Fragments” (International Journal of Molecular Sciences, 2022).

Tests used:
A. besseyi = experiment: microbe, parasite or virus in culture; details: Aphelenchoides besseyi, 48 h, read-out: Corrected Mortality Rate ± SD (%) A. besseyi
From the text: (§1) M. incognita (parasitic on tomato plants), A. besseyi (potato dextrose agar–Botrytis cinerea breeding), B. xylophilus (potato dextrose agar–Botrytis cinerea breeding), and C. elegans (nematode growth medium–inactivated Escherichia coli OP50 cultivation) were provided by the Fine Chemical Research and Development Center of Guizhou University (Guizhou, China). The methodology used for the nematocidal bioassays of these target compounds was modified in the light of the conventional methods reported in the previously published literature. The nematicidal activity of the target compounds against four nematodes was determined using 48-well biochemical culture dishes. All of the compounds were dissolved with 100 μL DMF and were diluted with 1% Tween-80 to obtain 200 and 50 μg/mL concentrations for the bioassays. Fosthiazate and tioxazafen were used as positive controls at the same concentrations, and a negative control group was prepared without compounds using the same methodology. An amount of 10 µL of nematode suspension (about 50 nematodes) and 300 µL of the trial solution were added to corresponding hole, and each treatment was set to three repetitions. All of the 48-well plates were placed in a biochemical incubator at 27 °C for dark light culture. […] Corrected mortality (%) = [(mortality of treatment % − mortality of negative control %)/(1 − mortality of negative control %)] × 100%(3)

C. elegans = experiment: microbe, parasite or virus in culture; details: Caenorhabditis elegans, 48 h, read-out: Corrected Mortality Rate ± SD (%) C. elegans
From the text: as §1

M. incognita = experiment: microbe, parasite or virus in culture; details: Meloidogyne incognita, 48 h, read-out: Corrected Mortality Rate ± SD (%) M. incognita
From the text: as §1

B. xylophilus = experiment: microbe, parasite or virus in culture; details: Bursaphelenchus xylophilus, 48 h, read-out: Corrected Mortality Rate ± SD (%) B. xylophilus
From the text: as §1

S. sclerotiorum = experiment: In vitro mycelium growth inhibition test; type: cell-based; details: Sclerotinia sclerotiorum; 50 μg/mL; mycelial growth; mean ± SD of three replicates; read-out: Inhibition Rate (%) S. sclerotiorum
Method: (§2) B. cinerea and S. scleotiorum were kindly provided by the Department of Pesticides, College of Plant Protection, Nanjing Agricultural University (Nanjing, China). All compounds were evaluated for mycelium growth inhibition tests against the two plant pathogenic fungi mentioned in previous reports. These two fungi were inoculated on potato dextrose agar (PDA) plates and were grown in biochemical incubators at 25 ± 1 °C for 2–4 days. The new mycelium was used to determine the antifungal activity. The target compounds were dissolved in 100 µL DMF, and they were then added into the PDA media to make the concentration 50 µg/mL. Mycelia dishes of about 5 mm in diameter were cut from the culture medium. Mycelium were picked up with a sterile inoculation needle, and the sample was inoculated in the middle of a PDA plate in a sterile environment. Afterwards, a preliminary screening of fungal activity was performed. […] Each test was carried out three times. The radial growth of the fungal colonies was gauged and recorded when the diameters of the blank control mycelia reached 5.0–5.5 cm. […] The final data were analyzed using SPSS v.25.0 (IBM, New York, NY, USA). The following formula was used to calculate the fungi inhibition rate. Inhibition rate (%) = [(Mycelium diameter of negative control − Mycelium diameter of treatment)/(Mycelium diameter of negative control − 0.5)] × 100%(1)

B. cinerea = experiment: In vitro mycelium growth inhibition test; type: cell-based; details: Botrytis cinerea; 50 μg/mL; mycelial growth; mean ± SD of three replicates; read-out: Inhibition Rate (%) B. cinerea
Method: as §2

| Structure (SMILES) | mortality at 50 µg/mL (A. besseyi) [%] | mortality at 200 µg/mL (A. besseyi) [%] | mortality at 50 µg/mL (C. elegans) [%] | mortality at 200 µg/mL (C. elegans) [%] | mortality at 50 µg/mL (M. incognita) [%] | mortality at 200 µg/mL (M. incognita) [%] | mortality at 50 µg/mL (B. xylophilus) [%] | mortality at 200 µg/mL (B. xylophilus) [%] | inhibition at 50 µg/mL (S. sclerotiorum) [%] | inhibition at 50 µg/mL (B. cinerea) [%] |
| --- | --- | --- | --- | --- | --- | --- | --- | --- | --- | --- |
| O=C(NCCc1ncc(C(F)(F)F)cc1Cl)c1nc(-c2ccc(Cl)cc2)no1 [Compound F10, N-(2-(3-chloro-5-(trifluoromethyl)pyridin-2-yl)ethyl)-3-(4-chlorophenyl)-1,2,4-oxadiazole-5-carboxamide] | 0 | 23.6 ± 2.2 | 69.3 ± 1.8 | 100 | 0 | 15.8 ± 3.5 | 0 | 12.1 ± 1.7 | 48.6 ± 1.2 | 24.2 ± 1.7 |
| O=C(NCc1ccc(F)cc1F)c1nc(-c2ccc(Cl)cc2)no1 [Compound F11, 3-(4-chlorophenyl)-N-(2,4-difluorobenzyl)-1,2,4-oxadiazole-5-carboxamide] | 0 | 19.8 ± 2.1 | 10.6 ± 1.3 | 73.6 ± 1.7 | 24.8 ± 2.2 | 93.2 ± 2.1 | 0 | 23.2 ± 2.1 | 44.9 ± 0.9 | 44.2 ± 1.2 |
| O=C(NCCc1ncc(C(F)(F)F)cc1Cl)c1nc(-c2ccccc2)no1 [Compound F2, N-(2-(3-chloro-5-(trifluoromethyl)pyridin-2-yl)ethyl)-3-phenyl-1,2,4-oxadiazole-5-carboxamide] | 0 | 15.1 ± 1.6 | 10.3 ± 1.4 | 46.7 ± 2.6 | 7.4 ± 3.2 | 42.6 ± 3.6 | 0 | 5.5 ± 1.6 | 48.6 ± 1.6 | 23.6 ± 0.6 |
| O=C(Nc1ccc(Cl)cc1Cl)c1nc(-c2ccc(Br)nc2)no1 [Compound F20] | 0 | 26.4 ± 2.5 | 81.4 ± 1.5 | 100 | 8.6 ± 2.2 | 41.2 ± 1.3 | 0 | 41.2 ± 1.3 | 13.8 ± 0.5 | 55.8 ± 0.1 |
| O=C(NCCc1ccccn1)c1nc(-c2ncc(C(F)(F)F)cc2Cl)no1 [Compound F21] | 0 | 13 ± 0.5 | 32.5 ± 2 | 76.8 ± 0.9 | 0 | 23.5 ± 2.4 | 0 | 7.1 ± 1.9 | 35.1 ± 0.1 | 38.8 ± 0.7 |
| Cc1ccc(-c2noc(C(=O)NCCc3ccccn3)n2)cc1 [Compound F5, N -(2-(pyridin-2-yl)ethyl)-3-(p-tolyl)-1,2,4-oxadiazole-5-carboxamide] | 0 | 22.5 ± 3.2 | 67.9 ± 2.3 | 94.6 ± 1.7 | 3.5 ± 1.3 | 35 ± 2.2 | 0 | 8.1 ± 2.2 | 56.3 ± 1.2 | 24.9 ± 1.6 |
| O=C(Nc1ccc(Cl)cc1Cl)c1nc(-c2ccccc2)no1 [Compound F4, N-(2,4-dichlorophenyl)-3-phenyl-1,2,4-oxadiazole-5-carboxamide] | 0 | 11.7 ± 1.4 | 71.4 ± 2.2 | 98.4 ± 2.3 | 5.9 ± 1.3 | 23.2 ± 1.4 | 0 | 25.3 ± 1.7 | 31.2 ± 0.7 | 20.9 ± 0.1 |
| O=C(Nc1ccc(Cl)cc1Cl)c1nc(-c2ncc(C(F)(F)F)cc2Cl)no1 [Compound F24] | 0 | 23.4 ± 1.6 | 9.6 ± 1.1 | 24.6 ± 1.4 | 0 | 18.5 ± 1.1 | 0 | 21.2 ± 1.5 | 1.8 ± 0.8 | 38.5 ± 0.5 |
| O=C(NCCc1ccccn1)c1nc(-c2ccc(Br)nc2)no1 [Compound F17] | 0 | 20.2 ± 1.2 | 54.2 ± 3.1 | 89.7 ± 1.5 | 0 | 33.5 ± 1.4 | 0 | 14.1 ± 1.9 | 10.1 ± 1.2 | 27.6 ± 1.4 |
| CCOP(=O)(SC(C)CC)N1CCSC1=O (stereo not drawn) [Fosthiazate, fosthiazate, reference compound] | 6.1 ± 3.1 | 38.4 ± 1.9 | 100 | 100 | 91.4 ± 2.5 | 100 | 38.8 ± 1.3 | 72.4 ± 1.9 |  |  |
| Cc1ccc(-c2noc(C(=O)NCc3ccc(F)cc3F)n2)cc1 [Compound F7, N-(2,4-difluorobenzyl)-3-(p-tolyl)-1,2,4-oxadiazole-5-carboxamide] | 0 | 12.2 ± 2.1 | 68.2 ± 2.3 | 91.9 ± 2.5 | 5.3 ± 1.1 | 24.9 ± 3.2 | 0 | 28.1 ± 2.4 | 56.4 ± 0.1 | 46.4 ± 0.8 |
| O=C(NCCc1ccccn1)c1nc(-c2cccs2)no1 [Compound F13, N -(2-(pyridin-2-yl)ethyl)-3-(thiophen-2-yl)-1,2,4-oxadiazole-5-carboxamide] | 0 | 21.7 ± 2.4 | 70.4 ± 2.6 | 100 | 0 | 11.6 ± 1.1 | 0 | 9.1 ± 1.5 | 41.1 ± 0.1 | 27.3 ± 0.4 |
| O=C(NCCc1ncc(C(F)(F)F)cc1Cl)c1nc(-c2ccc(Br)nc2)no1 [Compound F18] | 0 | 23 ± 2.3 | 53.6 ± 2.4 | 90 ± 2.7 | 0 | 36.7 ± 2.1 | 0 | 15.1 ± 1.2 | 34.9 ± 1.1 | 55.9 ± 1.3 |
| Cc1ccc(-c2noc(C(=O)Nc3ccc(Cl)cc3Cl)n2)cc1 [Compound F8, N-(2,4-dichlorophenyl)-3-(p-tolyl)-1,2,4-oxadiazole-5-carboxamide] | 0 | 6.1 ± 1.2 | 47.6 ± 1.7 | 77.6 ± 1.2 | 4.9 ± 2.1 | 23.9 ± 3.3 | 0 | 18.1 ± 1.2 | 21.1 ± 1.7 | 22.7 ± 1.3 |
| O=C(NCc1ccc(F)cc1F)c1nc(-c2ncc(C(F)(F)F)cc2Cl)no1 [Compound F23] | 0 | 21.5 ± 2.2 | 10.6 ± 1.2 | 27.6 ± 1.2 | 0 | 19.1 ± 2.2 | 0 | 20.3 ± 1.4 | 34.6 ± 0.1 | 41.5 ± 0.5 |
| c1ccc(-c2noc(-c3cccs3)n2)cc1 [Tioxazafen, tioxazafen, reference compound] | 8.8 ± 2.4 | 61.4 ± 1.7 | 90.4 ± 0.7 | 100 | 12.6 ± 3.2 | 23.9 ± 3.3 | 0 | 13.5 ± 1.2 |  |  |
